Source: patent publication US8329230B2, “Natural hair care composition, methods for obtaining the same and use thereof” (priority 2004, dated 2012)
Entries after “also recorded” stand apart in the source; their conditions may differ.

Assays:
[1] = system: chemotherapy induced alopecia; assay: Chemotherapeutic agent (cyclophosphamide) induced alopecia model, topical extracts; assay type: in vivo, rat pups of Sprague-Dawley strain
Method: Eight-day old rat pups of Sprague-Dawley strain of either sex, bred in Experimental Animal Facility of R&D Center, The Himalaya Drug Company, were used for the experiment. The animals were maintained at 22±3° C., 50-60% of humidity, 12 hours light and dark cycle.
Screening of Extracts in Chemotherapeutic Agent Induced Alopecia Model:
Three Groups of 8 rat pups are used. Group I served normal control and received saline at a dose of 10 ml/kg i.p. Group II & Group III animals received Cyclophosphamide (CP) at a dose of 50 mg/kg i.p. as a single dose. Test extracts PCPB-1 to PCPB-10, PCPB-1P to PCPB-10P and PCPB-1S to PCPB-10S were applied topically to Group III animals everyday from day one after Cyclophosphamide administration till the end of the study. On the 12th day of post Cyclophosphamide injection, the animals were graded for alopecia as given below.
2+—Moderately severe alopecia with more than 50% hair loss
3+—Severe and total alopecia.

[2] = system: murine hair epithelial cells; conditions: Phytother. Res. 15, 331-36, 2001; cited from earlier work
[3] = system: male pattern baldness; conditions: Phytother. Res. 15, 331-36, 2001; cited from earlier work
[4] = system: Cladosporium cladosporioides (Fres.) de Vries; conditions: cited from earlier work
[5] = system: heart rate; conditions: oral; cited from earlier work

O=P1(N(CCCl)CCCl)NCCCO1 (stereo not drawn) [CP, Cyclophosphamide]
hair growth, stereosome photograph ([1]; figure legends FIGS. 2, 3): scanty hairs | alopecia, appearance of rat pups ([1]; figure legends FIGS. 5, 6): high degree of alopecia | hair follicles, photomicrograph of skin section ([1]; figure legends FIGS. 8-10): degenerating hair follicles with decrease in their numbers; also recorded: degenerating hair follicles with epidermal down growth | alopecia grade, Mean SEM ([1]; mean ± SEM of 8 rat pups, graded 0 to 3+ on 12th day post CP): 2.88 ± 0.13

Oc1cc(O)c2c(c1)O[C@H](c1ccc(O)c(O)c1)[C@H](O)[C@H]2c1c(O)cc(O)c2c1O[C@H](c1ccc(O)c(O)c1)[C@H](O)C2 [Procyanidin B-2]
growth promoting effect on hair epithelial cells [2]: acts as growth promoting factor | potential as cure for male pattern baldness [3]: showed potential as promising cure

COc1ccc2c(c1)O[C@H]1c3ccc(O)cc3OC[C@@H]21 [(−)-medicarpin, (−)-3-hydroxy-9-methoxy ptero carpan]
anti-fungal activity [4]: active

Nc1cc(N2CCCCC2)nc(N)[n+]1[O-] [Minoxidil]
effect on heart rate [5]: reported to affect heart rate in some patients

COc1ccc2c(c1)OC1c3ccc(OC(C)=O)cc3OCC21 (single isomer, unassigned; (-)) [(−)-medicarpin acetate]
anti-fungal activity [4]: active
